# Tested on: C8161 cells
# Assay: Soft agar / anchorage independent growth assay, C8161 cells
# Format: cell-based, human
# Conditions: C8161 treated with anti-Nodal Morpholino
# Description: An in vitro colony forming assay was used to analyze colony-forming ability of poorly aggressive C81-61 cells, aggressive C8161 cells, C8161 cells treated with MO^Nodal and C8161 cells treated with MO^Nodal and rescued with recombinant Nodal (100 ng/mL). The assay was conducted using 50,000 cells suspended in 0.35% agarose in RPMI containing 10% serum, which were plated into 6-well dishes on 0.5% agar in the same medium. Colonies grew, and pictures were taken at day 7. After 2 weeks, colonies were stained with Crystal Violet and counted.
# The derivation and phenotypic characteristics of the human melanoma cell lines have been previously described. Seftor, et. al., 2002, Clin. Experim. Metastas. 19:233-246; Seftor, et. al., 2005 Cancer Res. 65:10164-10169. The melanoma cell lines are maintained in RPMI 1640 medium (Invitrogen) supplemented with 10% fetal bovine serum (FBS, Gemini Bioproducts) and 0.1% gentamycin sulfate with the exception of C81-61 cells which are maintained in Ham's FIO medium supplemented with 15% FBS, 1X Mito+ (BD Bioscience) and gentamycin sulfate. Normal human melanocytes are purchased (Cascade Biologics) or isolated from neonatal foreskins. Seftor, et. al., 2005. A single cell suspension is prepared, added to plastic flasks for the adherence of melanocytes and the cells propagated in Medium 254 with Human Melanocyte Growth Supplement (Cascade Biologics) including, 100 units/ml penicillin, 100 μg/ml streptomycin, and 250 ng/mL amphotericin B. The human embryonic stem cell lines are cultured as previously described. Thomson, et. al., 1998, Science 282:1145-1147. Briefly, cells are grown in 6-well plates precoated with 0.1% porcine gelatin and containing 1.9×10^5 irradiated mouse embryonic fibroblasts (strain CF-1; ATCC) per well. The cells are maintained in medium containing DMEM/F12 (1:1), 20% knock-out serum replacement, non-essential minimal amino acids, L-glutamine (Invitrogen), […], and 4 ng/ml FGF-2 (R&D Systems), and are split with collagenase (1 mg/ml) before the colonies begin to overlap. The cultures are determined to be free of mycoplasma contamination using a PCR-based assay (Roche). The normal human neonatal epidermal melanocytes (HEMn-LP; Cascade Biologics, Portland Oreg.), myoepithelial cells (Hs 578 Bst; American Type Culture Collection (ATCC), Manassas, Va.) and primary mammary epithelial cells (HMEpC; Cell Applications Inc., San Diego Calif.) were maintained as per distributor instructions. Live umbilical cord blood stem cells (SC00125; New Jersey Stem Cell Resource at Coriell Institute for Medical Research) amniotic fluid derived stem cells (GM00473, GM00957A) and adult bone marrow derived mesenchymal stem cells (Stem Cell Technologies, Vancouver BC, Canada) were maintained under the recommended conditions. The HTR-8/SVneo is a well characterized immortalized human extravillous cytotrophoblast cell line, and was maintained as previously described Graham et al., 1993, Exp. Cell Res. 206:204-211. […] The expression vector for wild type Nodal was kindly provided by Dr. Daniel Constam (Swiss Institute for Experimental Cancer Research (ISREC), Epalinges, Switzerland) and was transfected into C81-61 cells as previously described. Le Good et al., 2005, Curr. Biol. 15:31-36. […]
substance,measurement,setting,value
"MO^Nodal: FITC-conjugated anti-sense Morpholino to Nodal, 5′-AAGCAGCACCTCCAGCCCTTATATC-3′ [SEQ ID NO: 20] (all phosphorodiamidate morpholino (PMO); FITC conjugated, position not given here)",reduction of colony formation,"after 2 weeks, n=16, p<0.001",57%
same,ability to undergo anchorage-independent growth,soft agar,significantly diminished

# Source: US8106004B2, “Methods of inhibiting tumor cell aggressiveness using the microenvironment of human embryonic stem cells” (Children's Memorial Hospital, priority 2006, dated 2012)
